Test results published in publication PMC9954146, “Anti-Leukaemic Activity of Rilpivirine Is Mediated by Aurora A Kinase Inhibition” (Cancers, 2023).

How the values were obtained:
Test in all cases: Kinase panel
Assay type in all cases: biochemical
Settings in all cases: read-out: % Residual Activity
AMPKα2(h) = target: T1, AMPKα2(h) (Homo sapiens, UniProt P54646)
T1 construct: purchased Eurofins (KinaseProfiler)
In short: (§1)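 Steps: profile rilpivirine against a broad kinase panel; determine IC50 by radioactive assay using ATP at the kinase-specific Km; convert IC50 to Ki by the Cheng–Prusoff relationship.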

Arg(h) = target: T2, Arg(h) (Homo sapiens, UniProt P42684)
T2 construct: purchased Eurofins (KinaseProfiler)
In short: as §1

BIKe(h) = target: T3, BIKe(h) (Homo sapiens, UniProt Q9NSY1)
T3 construct: purchased Eurofins (KinaseProfiler)
In short: as §1

CK2α1(h) = target: T4, CK2α1(h) (Homo sapiens, UniProt P68400)
T4 construct: purchased Eurofins (KinaseProfiler)
In short: as §1

CLK1(h) = target: T5, CLK1(h) (Homo sapiens, UniProt P49759)
T5 construct: purchased Eurofins (KinaseProfiler)
In short: as §1

CLK2(h) = target: T6, CLK2(h) (Homo sapiens, UniProt P49760)
T6 construct: purchased Eurofins (KinaseProfiler)
In short: as §1

CLK4(h) = target: T7, CLK4(h) (Homo sapiens, UniProt Q9HAZ1)
T7 construct: purchased Eurofins (KinaseProfiler)
In short: as §1

CaMKIß(h) = target: T8, CaMKIß(h) (Homo sapiens, UniProt Q6P2M8)
T8 construct: purchased Eurofins (KinaseProfiler)
In short: as §1

EphA1(h) = target: T9, EphA1(h) (Homo sapiens, UniProt P21709)
T9 construct: purchased Eurofins (KinaseProfiler)
In short: as §1

ErbB4(h) = target: T10, ErbB4(h) (Homo sapiens, UniProt Q15303)
T10 construct: purchased Eurofins (KinaseProfiler)
In short: as §1

Flt4(h) = target: T11, Flt4(h) (Homo sapiens, UniProt P35916)
T11 construct: purchased Eurofins (KinaseProfiler)
In short: as §1

Fyn(h) = target: T12, Fyn(h) (Homo sapiens, UniProt P06241)
T12 construct: purchased Eurofins (KinaseProfiler)
In short: as §1

GRK3(h) = target: T13, GRK3(h) (Homo sapiens, UniProt P35626)
T13 construct: purchased Eurofins (KinaseProfiler)
In short: as §1

Haspin(h) = target: T14, Haspin(h) (Homo sapiens, UniProt Q8TF76)
T14 construct: purchased Eurofins (KinaseProfiler)
In short: as §1

IGF-1R(h), activated = target: T15, IGF-1R(h), activated (Homo sapiens, UniProt P08069)
T15 construct: purchased Eurofins (KinaseProfiler)
In short: as §1

IKKα(h) = target: T16, IKKα(h) (Homo sapiens, UniProt O15111)
T16 construct: purchased Eurofins (KinaseProfiler)
In short: as §1

IR(h) = target: T17, IR(h) (Homo sapiens, UniProt P06213)
T17 construct: purchased Eurofins (KinaseProfiler)
In short: as §1

LRRK2(h) = target: T18, LRRK2(h) (Homo sapiens, UniProt Q5S007)
T18 construct: purchased Eurofins (KinaseProfiler)
In short: as §1

MARK4(h) = target: T19, MARK4(h) (Homo sapiens, UniProt Q96L34)
T19 construct: purchased Eurofins (KinaseProfiler)
In short: as §1

MEK1(h) = target: T20, MEK1(h) (Homo sapiens, UniProt Q02750)
T20 construct: purchased Eurofins (KinaseProfiler)
In short: as §1

MINK(h) = target: T21, MINK(h) (Homo sapiens, UniProt Q8N4C8)
T21 construct: purchased Eurofins (KinaseProfiler)
In short: as §1

MST1(h) = target: T22, MST1(h) (Homo sapiens, UniProt Q13043)
T22 construct: purchased Eurofins (KinaseProfiler)
In short: as §1

PAK3(h) = target: T23, PAK3(h) (Homo sapiens, UniProt O75914)
T23 construct: purchased Eurofins (KinaseProfiler)
In short: as §1

PEK(h) = target: T24, PEK(h) (Homo sapiens, UniProt Q9NZJ5)
T24 construct: purchased Eurofins (KinaseProfiler)
In short: as §1

[1] = target: PI3 Kinase (p110a(E542K)/p85a)(h) (Homo sapiens, UniProt P42336, E542K)
In short: as §1

[2] = target: T25, PI3 Kinase (p110b/p85a)(h) (Homo sapiens, UniProt P42338)
T25 construct: purchased Eurofins (KinaseProfiler)
In short: as §1

PRK1(h) = target: T26, PRK1(h) (Homo sapiens, UniProt Q16512)
T26 construct: purchased Eurofins (KinaseProfiler)
In short: as §1

PTK5(h) = target: T27, PTK5(h) (Homo sapiens, UniProt P42685)
T27 construct: purchased Eurofins (KinaseProfiler)
In short: as §1

Plk3(h) = target: T28, Plk3(h) (Homo sapiens, UniProt Q9H4B4)
T28 construct: purchased Eurofins (KinaseProfiler)
In short: as §1

Plk4(h) = target: T29, Plk4(h) (Homo sapiens, UniProt O00444)
T29 construct: purchased Eurofins (KinaseProfiler)
In short: as §1

ROCK-II(h) = target: T30, ROCK-II(h) (Homo sapiens, UniProt O75116)
T30 construct: purchased Eurofins (KinaseProfiler)
In short: as §1

Ret(V804M)(h) = target: T31, Ret(V804M)(h) (Homo sapiens, UniProt P07949, V804M)
T31 construct: purchased Eurofins (KinaseProfiler)
In short: as §1

SGK(h) = target: T32, SGK(h) (Homo sapiens, UniProt O00141)
T32 construct: purchased Eurofins (KinaseProfiler)
In short: as §1

SLK(h) = target: T33, SLK(h) (Homo sapiens, UniProt Q9H2G2)
T33 construct: purchased Eurofins (KinaseProfiler)
In short: as §1

STK32A(h) = target: T34, STK32A(h) (Homo sapiens, UniProt Q8WU08)
T34 construct: purchased Eurofins (KinaseProfiler)
In short: as §1

STK33(h) = target: T35, STK33(h) (Homo sapiens, UniProt Q9BYT3)
T35 construct: purchased Eurofins (KinaseProfiler)
In short: as §1

TSSK4(h) = target: T36, TSSK4(h) (Homo sapiens, UniProt Q6SA08)
T36 construct: purchased Eurofins (KinaseProfiler)
In short: as §1

ULK3(h) = target: T37, ULK3(h) (Homo sapiens, UniProt Q6PHR2)
T37 construct: purchased Eurofins (KinaseProfiler)
In short: as §1

WNK4(h) = target: T38, WNK4(h) (Homo sapiens, UniProt Q96J92)
T38 construct: purchased Eurofins (KinaseProfiler)
In short: as §1

T16 sequence (O15111 whole entry): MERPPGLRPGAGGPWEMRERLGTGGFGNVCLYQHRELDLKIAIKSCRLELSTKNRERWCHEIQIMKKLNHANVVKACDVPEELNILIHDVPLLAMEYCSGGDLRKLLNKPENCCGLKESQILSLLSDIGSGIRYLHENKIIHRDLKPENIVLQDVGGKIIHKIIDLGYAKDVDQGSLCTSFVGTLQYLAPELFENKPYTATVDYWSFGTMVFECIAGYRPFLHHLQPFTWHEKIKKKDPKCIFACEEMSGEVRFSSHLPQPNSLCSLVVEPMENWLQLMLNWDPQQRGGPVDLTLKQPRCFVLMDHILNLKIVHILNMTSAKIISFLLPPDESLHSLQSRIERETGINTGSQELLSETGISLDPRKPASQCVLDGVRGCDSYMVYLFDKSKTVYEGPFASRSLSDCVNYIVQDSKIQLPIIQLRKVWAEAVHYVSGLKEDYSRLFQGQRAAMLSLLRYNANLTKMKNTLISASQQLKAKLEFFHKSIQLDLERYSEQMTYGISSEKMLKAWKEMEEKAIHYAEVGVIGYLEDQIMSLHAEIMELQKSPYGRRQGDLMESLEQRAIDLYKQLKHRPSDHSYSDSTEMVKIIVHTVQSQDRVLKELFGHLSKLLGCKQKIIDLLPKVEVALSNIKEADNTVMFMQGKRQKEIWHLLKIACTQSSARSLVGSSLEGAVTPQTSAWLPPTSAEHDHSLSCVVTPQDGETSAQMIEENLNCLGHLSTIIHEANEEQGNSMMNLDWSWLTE
T38 sequence (Q96J92 whole entry): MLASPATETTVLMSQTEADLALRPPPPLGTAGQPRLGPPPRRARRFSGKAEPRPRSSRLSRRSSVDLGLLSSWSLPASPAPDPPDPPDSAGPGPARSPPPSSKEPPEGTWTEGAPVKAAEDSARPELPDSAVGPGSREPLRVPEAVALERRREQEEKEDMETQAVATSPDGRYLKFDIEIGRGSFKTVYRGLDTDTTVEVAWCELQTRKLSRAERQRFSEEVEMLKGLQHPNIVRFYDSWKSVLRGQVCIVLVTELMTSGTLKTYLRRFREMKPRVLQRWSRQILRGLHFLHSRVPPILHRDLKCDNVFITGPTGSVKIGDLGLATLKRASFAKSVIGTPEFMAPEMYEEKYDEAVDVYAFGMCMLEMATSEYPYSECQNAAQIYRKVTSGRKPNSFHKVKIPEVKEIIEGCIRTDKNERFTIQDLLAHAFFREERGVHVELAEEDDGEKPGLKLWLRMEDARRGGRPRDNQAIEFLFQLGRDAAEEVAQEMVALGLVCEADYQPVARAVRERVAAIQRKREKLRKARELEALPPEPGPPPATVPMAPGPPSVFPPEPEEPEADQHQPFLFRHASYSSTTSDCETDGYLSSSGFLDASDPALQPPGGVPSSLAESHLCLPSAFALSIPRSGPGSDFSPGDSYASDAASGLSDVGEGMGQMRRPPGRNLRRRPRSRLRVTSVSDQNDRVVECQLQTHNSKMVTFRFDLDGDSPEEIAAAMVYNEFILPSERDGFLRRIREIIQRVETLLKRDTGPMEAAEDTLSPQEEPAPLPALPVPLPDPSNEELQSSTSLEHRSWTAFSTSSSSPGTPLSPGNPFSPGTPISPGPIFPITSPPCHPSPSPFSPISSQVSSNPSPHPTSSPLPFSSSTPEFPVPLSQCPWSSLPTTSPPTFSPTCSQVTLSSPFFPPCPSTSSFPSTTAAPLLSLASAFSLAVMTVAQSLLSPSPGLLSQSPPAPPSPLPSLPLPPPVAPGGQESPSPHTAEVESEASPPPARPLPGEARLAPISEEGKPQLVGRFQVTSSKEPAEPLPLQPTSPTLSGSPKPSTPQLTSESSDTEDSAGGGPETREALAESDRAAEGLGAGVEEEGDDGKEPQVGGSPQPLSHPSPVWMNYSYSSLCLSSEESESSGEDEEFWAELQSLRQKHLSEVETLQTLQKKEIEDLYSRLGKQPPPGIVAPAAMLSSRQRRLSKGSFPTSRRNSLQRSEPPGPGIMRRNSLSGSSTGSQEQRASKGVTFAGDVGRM
T18 sequence (Q5S007 whole entry): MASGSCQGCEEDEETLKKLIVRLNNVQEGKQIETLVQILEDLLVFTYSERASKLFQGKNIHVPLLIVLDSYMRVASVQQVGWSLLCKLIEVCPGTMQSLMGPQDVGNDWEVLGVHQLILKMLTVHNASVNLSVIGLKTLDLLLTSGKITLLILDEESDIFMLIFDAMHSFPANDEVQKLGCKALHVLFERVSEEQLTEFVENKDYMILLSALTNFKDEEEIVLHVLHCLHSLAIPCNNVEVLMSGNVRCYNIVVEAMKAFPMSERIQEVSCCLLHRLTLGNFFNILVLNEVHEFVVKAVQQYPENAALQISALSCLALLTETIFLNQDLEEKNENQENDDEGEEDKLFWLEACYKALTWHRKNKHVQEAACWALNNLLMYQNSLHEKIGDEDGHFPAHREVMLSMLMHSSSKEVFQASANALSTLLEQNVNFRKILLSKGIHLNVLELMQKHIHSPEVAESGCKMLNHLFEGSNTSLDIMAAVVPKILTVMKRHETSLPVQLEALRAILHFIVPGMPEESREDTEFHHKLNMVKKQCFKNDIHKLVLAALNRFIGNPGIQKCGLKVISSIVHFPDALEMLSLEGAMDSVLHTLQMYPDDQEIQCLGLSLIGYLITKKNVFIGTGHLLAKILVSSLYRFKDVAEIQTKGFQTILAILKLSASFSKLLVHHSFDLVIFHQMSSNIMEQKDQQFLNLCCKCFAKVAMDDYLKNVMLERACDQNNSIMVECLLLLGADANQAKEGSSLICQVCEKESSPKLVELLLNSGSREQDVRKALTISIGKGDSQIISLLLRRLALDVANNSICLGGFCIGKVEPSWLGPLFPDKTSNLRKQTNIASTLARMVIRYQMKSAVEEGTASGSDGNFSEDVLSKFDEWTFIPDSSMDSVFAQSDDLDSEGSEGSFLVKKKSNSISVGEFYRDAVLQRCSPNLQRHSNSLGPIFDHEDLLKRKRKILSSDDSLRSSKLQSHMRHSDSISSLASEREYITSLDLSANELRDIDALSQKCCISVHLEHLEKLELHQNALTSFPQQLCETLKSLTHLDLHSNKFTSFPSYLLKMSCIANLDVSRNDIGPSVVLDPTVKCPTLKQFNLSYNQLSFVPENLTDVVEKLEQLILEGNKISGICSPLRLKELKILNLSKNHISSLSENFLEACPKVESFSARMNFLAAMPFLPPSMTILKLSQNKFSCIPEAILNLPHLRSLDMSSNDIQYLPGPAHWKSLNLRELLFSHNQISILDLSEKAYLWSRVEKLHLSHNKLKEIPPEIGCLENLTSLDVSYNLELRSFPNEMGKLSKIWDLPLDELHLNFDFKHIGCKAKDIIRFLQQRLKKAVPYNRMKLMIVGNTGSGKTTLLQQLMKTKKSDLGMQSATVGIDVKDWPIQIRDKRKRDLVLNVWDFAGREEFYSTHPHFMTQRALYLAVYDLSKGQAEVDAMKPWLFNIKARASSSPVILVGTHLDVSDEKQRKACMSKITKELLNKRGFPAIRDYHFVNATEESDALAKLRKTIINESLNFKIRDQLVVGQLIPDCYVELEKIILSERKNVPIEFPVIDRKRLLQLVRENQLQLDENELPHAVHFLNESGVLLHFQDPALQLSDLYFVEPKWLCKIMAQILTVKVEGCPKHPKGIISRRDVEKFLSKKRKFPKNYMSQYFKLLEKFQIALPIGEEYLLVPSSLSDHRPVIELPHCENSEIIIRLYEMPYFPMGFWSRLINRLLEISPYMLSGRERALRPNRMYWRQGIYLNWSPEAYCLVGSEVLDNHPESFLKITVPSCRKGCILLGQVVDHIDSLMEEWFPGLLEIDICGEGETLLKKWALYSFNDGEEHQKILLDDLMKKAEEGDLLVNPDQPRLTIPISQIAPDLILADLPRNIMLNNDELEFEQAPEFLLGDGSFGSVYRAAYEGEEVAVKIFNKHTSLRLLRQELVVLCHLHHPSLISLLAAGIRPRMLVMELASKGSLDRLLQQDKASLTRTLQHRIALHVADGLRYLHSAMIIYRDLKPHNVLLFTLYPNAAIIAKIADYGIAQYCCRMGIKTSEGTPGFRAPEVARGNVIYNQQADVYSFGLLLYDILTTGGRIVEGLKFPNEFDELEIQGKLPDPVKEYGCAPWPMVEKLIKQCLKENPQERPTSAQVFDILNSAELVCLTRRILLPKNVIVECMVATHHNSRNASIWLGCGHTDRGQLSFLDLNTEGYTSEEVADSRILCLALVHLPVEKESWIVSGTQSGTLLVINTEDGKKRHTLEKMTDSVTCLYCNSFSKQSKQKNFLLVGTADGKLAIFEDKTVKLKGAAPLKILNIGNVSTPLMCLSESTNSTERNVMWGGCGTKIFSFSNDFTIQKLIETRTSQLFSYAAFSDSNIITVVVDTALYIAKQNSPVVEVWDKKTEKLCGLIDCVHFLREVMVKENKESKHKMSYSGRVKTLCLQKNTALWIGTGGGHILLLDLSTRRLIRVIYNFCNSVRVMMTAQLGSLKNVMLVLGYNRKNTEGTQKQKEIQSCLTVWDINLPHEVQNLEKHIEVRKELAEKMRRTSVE
T20 sequence (Q02750 whole entry): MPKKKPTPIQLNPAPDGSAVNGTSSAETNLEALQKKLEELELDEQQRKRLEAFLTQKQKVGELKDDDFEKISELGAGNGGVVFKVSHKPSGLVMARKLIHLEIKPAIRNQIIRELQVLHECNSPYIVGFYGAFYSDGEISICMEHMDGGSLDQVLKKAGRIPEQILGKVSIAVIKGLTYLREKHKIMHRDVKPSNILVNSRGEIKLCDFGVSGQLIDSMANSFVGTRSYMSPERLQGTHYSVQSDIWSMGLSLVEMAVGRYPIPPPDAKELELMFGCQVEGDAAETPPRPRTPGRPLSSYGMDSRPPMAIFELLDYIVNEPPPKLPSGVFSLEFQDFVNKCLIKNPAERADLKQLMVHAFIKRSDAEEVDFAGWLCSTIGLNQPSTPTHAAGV

## Cc1cc(/C=C/C#N)cc(C)c1Nc1ccnc(Nc2ccc(C#N)cc2)n1 [rilpivirine, (E)-4-((4-((4-(2-cyanoethenyl)-2,6-dimethylphenyl)amino)pyrimidin-2-yl)amino)benzonitrile]
AMPKα2(h)
  remaining activity at 1 µM: 48%
Arg(h)
  remaining activity at 1 µM: 70%
BIKe(h)
  remaining activity at 1 µM: 56%
CK2α1(h)
  remaining activity at 1 µM: 101%
CLK1(h)
  remaining activity at 1 µM: 48%
CLK2(h)
  remaining activity at 1 µM: 60%
CLK4(h)
  remaining activity at 1 µM: 37%
CaMKIß(h)
  remaining activity at 1 µM: 92%
EphA1(h)
  remaining activity at 1 µM: 56%
ErbB4(h)
  remaining activity at 1 µM: 88%
Flt4(h)
  remaining activity at 1 µM: 101%
Fyn(h)
  remaining activity at 1 µM: 49%
GRK3(h)
  remaining activity at 1 µM: 92%
Haspin(h)
  remaining activity at 1 µM: 61%
IGF-1R(h), activated
  remaining activity at 1 µM: 99%
IKKα(h)
  remaining activity at 1 µM: 85%
IR(h)
  remaining activity at 1 µM: 111%
LRRK2(h)
  remaining activity at 1 µM: 93%
MARK4(h)
  remaining activity at 1 µM: 88%
MEK1(h)
  remaining activity at 1 µM: 101%
MINK(h)
  remaining activity at 1 µM: 80%
MST1(h)
  remaining activity at 1 µM: 84%
PAK3(h)
  remaining activity at 1 µM: 86%
PEK(h)
  remaining activity at 1 µM: 82%
[1]
  remaining activity at 1 µM: 97%
[2]
  remaining activity at 1 µM: 104%
PRK1(h)
  remaining activity at 1 µM: 64%
PTK5(h)
  remaining activity at 1 µM: 32%
Plk3(h)
  remaining activity at 1 µM: 99%
Plk4(h)
  remaining activity at 1 µM: 85%
ROCK-II(h)
  remaining activity at 1 µM: 98%
Ret(V804M)(h)
  remaining activity at 1 µM: 92%
SGK(h)
  remaining activity at 1 µM: 97%
SLK(h)
  remaining activity at 1 µM: 106%
STK32A(h)
  remaining activity at 1 µM: 89%
STK33(h)
  remaining activity at 1 µM: 102%
TSSK4(h)
  remaining activity at 1 µM: 127%
ULK3(h)
  remaining activity at 1 µM: 94%
WNK4(h)
  remaining activity at 1 µM: 113%
